Assay results from patent publication US20120141479A1, “Histone Deacetylase Inhibitors Sensitize Cancer Cells To Epidermal Growth Factor Inhibitors” (priority 2007, published 2012).

What was measured:
E-cad = settings: lung cancer cell lines; cited from earlier work
NSCLC patients = settings: single agent, phase I studies including chemotherapy resistant NSCLC patients; cited from earlier work
[1] = system: 1483 head & neck cancer cell line; test: Modified MTT growth inhibition assay; format: cell-based; settings: SNDX275 added as first drug
Experimental: (§1) Combination administrations were performed as sequential treatments where the HDAC inhibitor was administer prior to the EGFR inhibitor, or simultaneous treatments in selected cell lines. Concentrations of HDAC inhibitors and EGFR inhibitors are indicated as μM concentrations in all experiments. SNDX275 was administered in three increasing concentrations, with a variety of ranges depending upon the cell line.
(§2) Drugs were diluted in fresh medium before each experiment, and the final DMSO concentration was <0.1%. Growth inhibition was assessed using a modified MTT assay. 2×10^3 cells were plated in each well of 96-well flat-bottomed microtiter plates and drugs were added the next day. […] The microtiter plates were incubated for 4 hours at 37° C. The visible absorbance of each well was measured using an automated plate reader (Molecular Devices, Sunnyvale, Calif.), and data were analyzed using SlideWrite to determine the drug IC50.

[2] = system: UMSCC19 head & neck cancer cell line; test: Modified MTT growth inhibition assay; format: cell-based
Experimental: as §1, §2

[3] = system: 584 head & neck cancer cell line; test: Modified MTT growth inhibition assay; format: cell-based; settings: SNDX275 added as first drug
Experimental: as §1, §2

[4] = system: Detroit562 head & neck cancer cell line; test: Modified MTT growth inhibition assay; format: cell-based
Experimental: as §1, §2

[5] = system: HS766T pancreatic cancer cell line; test: Modified MTT growth inhibition assay; format: cell-based
Experimental: as §1, §2

[6] = system: HPAFII pancreatic cancer cell line; test: Modified MTT growth inhibition assay; format: cell-based; settings: SNDX275 added as first drug
Experimental: as §1, §2

[7] = system: Panc02.03 pancreatic cancer cell line; test: Modified MTT growth inhibition assay; format: cell-based; settings: Panc 02.03
Experimental: as §1, §2

[8] = system: MSK2922 head & neck cancer cell line; test: Modified MTT growth inhibition assay; format: cell-based; settings: SNDX275 added as first drug
Experimental: as §1, §2

[9] = system: UMSCC22B head & neck cancer cell line; test: Modified MTT growth inhibition assay; format: cell-based
Experimental: as §1, §2

[10] = system: FaDu head & neck cancer cell line; test: Modified MTT growth inhibition assay; format: cell-based
Experimental: as §1, §2

[11] = system: Panc04.03 pancreatic cancer cell line; test: Modified MTT growth inhibition assay; format: cell-based; settings: Panc 04.03
Experimental: as §1, §2

[12] = system: Panc03.27 pancreatic cancer cell line; test: Modified MTT growth inhibition assay; format: cell-based; settings: Panc 03.27, both drugs added at the same time
Experimental: as §1, §2

H520 NSCLC cell line = test: Apoptosis and cell death analysis; format: cell-based; settings: 10 μM gefitinib
Experimental: (§3) The effect of gefitinib on inducing apoptosis and cell death in NSCLC cell lines sensitive and resistant to gefitinib was evaluated. […] Expression of E-cad was evaluated in these cell lines.

H157 NSCLC cell line = test: Apoptosis and cell death analysis; format: cell-based; settings: 10 μM gefitinib
Experimental: as §3

H460 NSCLC cell line = test: Apoptosis and cell death analysis; format: cell-based; settings: 10 μM gefitinib
Experimental: as §3

A549 NSCLC cell line = test: Apoptosis and cell death analysis; format: cell-based; settings: 10 μM gefitinib
Experimental: The effect of gefitinib on inducing apoptosis and cell death in NSCLC cell lines sensitive and resistant to gefitinib was evaluated. […].

EGFR = EGFR phosphorylation in E-cad transfected H157 cell lines; format: cell-based; settings: E-cad transfected H157 cell lines treated with EGF
Experimental: Cell Culture, Drugs and MTS assay. Twenty NSCLC cell lines were used: squamous (NCI-H157, HCC95, HCC15 and H441), large-cell (H460, H1299, H2126 and H1264, a derivative of H460), adeno (Calu3, A549, H2122, H1648, H520, HCC78, HCC193, H2009, HCC44 and H3255) and bronchioalveolar (H358 and H322). The NSCLC cell lines, HCC78, H2126, HCC95, H1299, HCC193, HCC44, HCC15, H2009 were obtained from UTSW and the H3255 was a gift from Dr. Bruce Johnson. All lines were cultured in RPMI medium 1640 under standard conditions. […] The drugs were diluted in fresh media before each experiment, and the final dimethyl sulfoxide concentration was <0.1%. […] Growth inhibition was assessed by MTS (3-(4,5-dimethylthiazol-2-yl)-5-(3-carboxymethoxyphenyl)-2-(4-sulfophenyl)2H-tetrazolium, inner salt) assay (Promega, Madison, Wis.). […] The absorbency of each well is measured using an automated plate reader. The data was analyzed using a SlideWrite program to determine the IC50 of the drug. […] After sonication, the Bradford assay was used for protein quantification. […]
The effect of E-cad on NSCLC cell lines apoptotic response to gefitinib was assessed by transfecting a gefitinib-resistant cell line, H157, with an E-cad-encoding adenovirus. […] Higher expression of E-cad was detected in the H157-E-cad-3 cell line compared to the H157-E-cad-3 cell line. […]

[13] = erlotinib 0.06 μM alone, SNDX275 added as first drug
[14] = erlotinib 0.06 μM alone, both drugs added at the same time
[15] = erlotinib 3.00 μM alone, SNDX275 added as first drug
[16] = erlotinib 3.00 μM alone, both drugs added at the same time
[17] = erlotinib 6.0 μM alone, SNDX275 added as first drug
[18] = erlotinib 6.0 μM alone, both drugs added at the same time
[19] = erlotinib 10.0 μM alone, both drugs added at the same time
[20] = erlotinib 0.3 μM alone, SNDX275 added as first drug
[21] = erlotinib 0.3 μM alone, both drugs added at the same time
[22] = erlotinib 2.0 μM alone, SNDX275 added as first drug
[23] = erlotinib 2.0 μM alone, both drugs added at the same time

With CC(/C=C/C(=O)NO)=C\[C@@H](C)C(=O)c1ccc(N(C)C)cc1 [trichostatin A] as the compound, how does the “effect of inhibiting HDAC on E-cad” value (E-cad) read?
The value was “activation of E-cad”.

Which response rates (NSCLC patients) does the source give for C#Cc1cccc(Nc2ncnc3cc(OCCOC)c(OCCOC)cc23)c1 [erlotinib] here?
Its response rates is “about 10%”.

And the surviving ([1]; erlotinib 6.0 μM alone)?
Its surviving is 67.497%.

And the surviving ([1]; erlotinib 8.0 μM alone)?
The surviving was 52.894%.

What about the surviving ([1]; erlotinib 10.0 μM alone) of the same compound?
Its surviving is 43.652%.

And the surviving ([2]; erlotinib 0.03 μM alone, SNDX275 added as first drug (first table))?
The surviving was 70.495%.

What about the surviving ([2]; erlotinib 0.03 μM alone, SNDX275 added as first drug (second table)) of the same compound?
The surviving was 89.125%.

What about the surviving ([2]; erlotinib 2.00 μM alone, SNDX275 added as first drug (first table)) of the same compound?
The surviving was 40.636%.

What about the surviving ([2]; erlotinib 2.00 μM alone, SNDX275 added as first drug (second table)) of the same compound?
The surviving was 49.820%.

And the surviving ([2]; erlotinib 6.00 μM alone, SNDX275 added as first drug (first table))?
Its surviving is 22.618%.

And the surviving ([2]; erlotinib 6.00 μM alone, SNDX275 added as first drug (second table))?
The surviving was 29.934%.

And the surviving ([3]; erlotinib 3.0 μM alone)?
Its surviving is 70.581%.

What about the surviving ([3]; erlotinib 7.0 μM alone) of the same compound?
The surviving was 49.941%.

What about the surviving ([3]; erlotinib 10.0 μM alone) of the same compound?
Its surviving is 25.563%.

And the surviving [4, 13]?
The surviving was 81.459%.

And the surviving [4, 14]?
Its surviving is 73.569%.

And the surviving ([4]; erlotinib 0.60 μM alone, SNDX275 added as first drug)?
The surviving was 56.459%.

What about the surviving ([4]; erlotinib 0.60 μM alone, both drugs added at the same time) of the same compound?
Its surviving is 40.826%.

And the surviving [4, 15]?
The surviving was 28.582%.

What about the surviving [4, 16] of the same compound?
Its surviving is 17.946%.

What about the surviving ([5]; erlotinib 1.0 μM alone, SNDX275 added as first drug) of the same compound?
The surviving was 71.523%.

What about the surviving ([5]; erlotinib 1.0 μM alone, both drugs added at the same time) of the same compound?
Its surviving is 77.921%.

And the surviving [5, 17]?
The surviving was 49.547%.

What about the surviving [5, 18] of the same compound?
Its surviving is 46.785%.

What about the surviving [5, 19] of the same compound?
Its surviving is 37.138%.

And the surviving ([6]; erlotinib 0.03 μM alone)?
Its surviving is 79.346%.

What about the surviving ([6]; erlotinib 1.00 μM alone) of the same compound?
Its surviving is 49.804%.

And the surviving ([6]; erlotinib 6.00 μM alone)?
The surviving was 28.170%.

What about the surviving [7, 20] of the same compound?
Its surviving is 63.194%.

And the surviving [7, 21]?
The surviving was 54.857%.

What about the surviving [7, 22] of the same compound?
Its surviving is 53.632%.

And the surviving [7, 23]?
The surviving was 53.313%.

What about the surviving [7, 17] of the same compound?
The surviving was 27.404%.

What about the surviving [7, 18] of the same compound?
Its surviving is 36.701%.

What about the surviving ([8]; erlotinib 0.5 μM alone) of the same compound?
The surviving was 76.960%.

What about the surviving ([8]; erlotinib 5.0 μM alone) of the same compound?
The surviving was 49.683%.

What about the surviving ([8]; erlotinib 10.0 μM alone) of the same compound?
Its surviving is 16.390%.

What about the surviving ([9]; erlotinib 3.0 μM alone, SNDX275 added as first drug) of the same compound?
The surviving was 79.839%.

What about the surviving ([9]; erlotinib 3.0 μM alone, both drugs added at the same time) of the same compound?
The surviving was 78.643%.

And the surviving ([9]; erlotinib 7.0 μM alone, SNDX275 added as first drug)?
Its surviving is 53.060%.

And the surviving ([9]; erlotinib 7.0 μM alone, both drugs added at the same time)?
Its surviving is 56.412%.

And the surviving ([9]; erlotinib 10.0 μM alone, SNDX275 added as first drug)?
Its surviving is 29.839%.

And the surviving [9, 19]?
Its surviving is 49.762%.

And the surviving [10, 13]?
Its surviving is 83.931%.

And the surviving [10, 14]?
Its surviving is 98.703%.

And the surviving ([10]; erlotinib 0.30 μM alone, SNDX275 added as first drug)?
The surviving was 49.364%.

What about the surviving ([10]; erlotinib 0.30 μM alone, both drugs added at the same time) of the same compound?
The surviving was 55.823%.

What about the surviving [10, 15] of the same compound?
The surviving was 24.489%.

And the surviving [10, 16]?
The surviving was 27.463%.

What about the surviving [11, 20] of the same compound?
Its surviving is 77.213%.

And the surviving [11, 21]?
The surviving was 65.993%.

What about the surviving [11, 22] of the same compound?
The surviving was 53.936%.

And the surviving [11, 23]?
The surviving was 63.603%.

What about the surviving [11, 17] of the same compound?
The surviving was 30.300%.

And the surviving [11, 18]?
Its surviving is 47.335%.

And the surviving ([12]; erlotinib 0.03 μM alone)?
The surviving was 73.670%.

What about the surviving ([12]; erlotinib 0.60 μM alone) of the same compound?
The surviving was 43.685%.

What about the surviving ([12]; erlotinib 6.00 μM alone) of the same compound?
Its surviving is 19.177%.

Which response rates (NSCLC patients) does the source give for COc1cc2ncnc(Nc3ccc(F)c(Cl)c3)c2cc1OCCCN1CCOCC1 [gefitinib] here?
Its response rates is “about 10%”.

And the “apoptotic or necrotic effect” value (H520 NSCLC cell line)?
Its value is “no apoptotic or necrotic effect”.

And the “apoptotic or necrotic effect” value (H157 NSCLC cell line)?
The value was “no apoptotic or necrotic effect”.

What about the “apoptotic or necrotic effect” value (H460 NSCLC cell line) of the same compound?
The value was “no apoptotic or necrotic effect”.

And the “apoptotic or necrotic effect” value (A549 NSCLC cell line)?
Its value is “no apoptotic or necrotic effect”.

With “EGF: Epidermal growth factor purchased from R&D Systems Inc. (NSDSECPLSHDGYCLHDGVCMYIEALDKYACNCVVGYIGERCQYRDLKWWELR; Epidermal growth factor; UniProt P01133 971-1023, looked up)” as the compound, how does the “increase in EGFR phosphorylation” value (EGFR) read?
Its value is “two fold increase”.
